Data on three substances can be found in article PMC2120067 (The Journal of Cell Biology, 1994).

The subject of assay [1] is angiogenic bovine aortic endothelial (BAE) cells. Briefly: Quantitation of endothelial cord formation. In kind it is cell-based.
Assay [2] in a line: Copper-binding study by electrospray mass spectrometry. Particulars: 10 µM KGHK and KGRK mixed with 8 µM Cu2+, electrospray MS.
Assay [3] in a line: Magnesium-binding control by electrospray mass spectrometry. The note with it: 20 µM KGHK + 50 µM MgSO4 in 20 mM NH4HCO3 (pH 7.5), electrospray MS.
Assay [4] can be described thus: Spectroscopic analysis of copper binding. Particulars: saturable; not displaced with 100-fold excesses of Na, K, Ca, or Mg ions; not shown.
The subject of assay [5] is chicken chorioallantoic membrane (CAM). Briefly: CAM angiogenesis assay. The note with it: methylcellulose disk on chick CAM. The class given is in vivo.
For assay [6], the system named is new vessel growth in vivo. The note with it: ref Raju et al., 1982; cited from earlier work.

Turning to “bovine serum albumin: control protein [reference compound]”, in assay [1] (bovine serum albumin, concentration not given), the “Stimulation of endothelial cord formation” value is on record as “no stimulatory effect”.

“KGHK [N-lysyl-L-glycyl-L-histidyl-L-lysine- OH]”: the “Direct competition for limiting copper ions” value in assay [2] is recorded as “all copper ions were sequestered in a KGHK:Cu complex”. In addition, in assay [3], the “Formation of 1:1 complex with magnesium” value is reported as “did not form”. Further, the “Change of absorbance on addition of copper ions” value in assay [4] is reported as “increase in absorbance at 580 nm”. In addition, the “Lowest application eliciting angiogenic activity in the CAM” value in assay [5] is 50 ng/disk.

As to N-gly- cyl-L-histidyl-L-lysine-OH [GHK], the “Stimulation of endothelial cord formation, peptide pretreated with CuSO4” value in assay [1] (pretreatment of peptide with CuSO4, not shown) is recorded as “significant angiogenic stimulation”. Further, in assay [6], the “Stimulation of new vessel growth in vivo” value is given as “little effect”.
